From US7998978B2 (Pfizer Inc., priority 2006, dated 2011)

The molecules below were run against T1, JNK1α1 (Homo sapiens, UniProt P45983) (assay: Coupled spectrophotometric (PK/LDH) JNK1α1 assay: % inhibition and Ki determination). Conditions: JNK-1.
T1 construct: catalytic domain containing amino acids 1-364 and N-terminal hexahistidine tag; hexahistidine (His6) (N); made in house; host or cells: E. coli BL21 (DE3)
Type: biochemical
Procedure: % Inhibition and Ki Determination
A coupled spectrophotometric assay, coupling JNK1α1 activity to the oxidation of β-NADH to NAD+ through the action of pyruvate kinase (PK) and lactic dehydrogenase (LDH), was used to determine the potency (percent inhibition at 1 or 10 μM or Ki) of compounds against JNK1α1 (Genbank Accession Number: L26318). […] The reaction was monitored by following the decrease in absorbance at 340 nm. The initial reaction rate was determined by the slope of the change in absorbance. To calculate percent inhibition the rate of the reaction in the presence of 1 or 10 μM compound was compared to the rate of the reaction with only DMSO multiplied by 100 percent. Note, the background rate of the above reaction in the presence of 10 μM PHA-00738186 was subtracted from all rates. […] Y=(−X+Eo−(Ki*(1+A/Km))+((X−Eo+(Ki*(1+A/Km)))^2+4*Eo*(Ki*(1+A/Km)))^0.5)*(Vm*A/(Km+A)/(2*Eo)) Formula: • Parameters: Eo, Ki, A, Km, Vo • Y is initial reaction velocity; • X is inhibitor concentration; • A is [ATP]; • Ki is inhibition constant; • Vm is Vmax; • Eo is total (initial) enzyme concentration; • Km is ATP Km;
The compounds were prepared in 100% DMSO at a 40× concentration. For percent inhibition experiments this would be 400 or 40 μM for 10 and 1 μM final concentration, respectively. For the Ki determination 3× serial dilutions were made starting at 4 mM (100 μM at 1×) in DMSO. A total of 11 concentrations were used for the analysis. The compounds were added to the reaction plate first. Next, a solution containing the HEPES, MgCl2, DTT, peptide substrate, NADH, PEP, PK/LDH enzyme, and JNK1α1—364nHis enzyme was added to the assay plate. The plate was incubated at room temperature for 15 minutes. Then the plate was warmed to 30° C. for 5 minutes. The reaction was initiated with the addition of ATP. The reaction was run in a plate reader at 30° C. for 20 minutes with absorbance readings made about every 10 seconds.
The column with “#” heading refers to compound number as exemplified in the Examples section. The column with “Ki” heading refers to Ki (in nM). The column with “% Inhibition” heading refers to percent inhibition of JNK-1 at 1 μM or 10 μM (in %) unless otherwise stated. ND refers to no data was taken.

T1 sequence (P45983 1-364): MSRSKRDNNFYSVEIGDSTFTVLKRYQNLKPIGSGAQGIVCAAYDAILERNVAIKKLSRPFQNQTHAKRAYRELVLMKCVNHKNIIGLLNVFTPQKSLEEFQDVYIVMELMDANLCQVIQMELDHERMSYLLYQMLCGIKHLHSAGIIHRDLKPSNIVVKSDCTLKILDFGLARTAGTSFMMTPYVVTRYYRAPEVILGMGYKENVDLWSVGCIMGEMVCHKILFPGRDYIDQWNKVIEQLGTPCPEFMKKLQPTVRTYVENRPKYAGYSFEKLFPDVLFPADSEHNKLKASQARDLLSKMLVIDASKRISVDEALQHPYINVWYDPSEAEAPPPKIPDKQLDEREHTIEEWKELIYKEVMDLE

Structure (SMILES) | Ki [nM]
CC(C)NC(=O)c1ccc2cnc(N[C@H]3CC[C@H](O)CC3)nc2c1 [Example 64, 2-[(trans-4-hydroxycyclohexyl)amino]-N-isopropylquinazoline-7-carboxamide] | 456
O=C(NC1CCS(=O)(=O)C1)c1ccc2cnc(N[C@H]3CC[C@H](O)CC3)nc2c1 (stereo partly drawn) [Example 79, N-(1,1-dioxidotetrahydro-3-thienyl)-2-[(trans-4-hydroxycyclohexyl)amino]quinazoline-7-carboxamide] | 292
O=C(NCc1ccccc1)c1ccc2cnc(N[C@H]3CC[C@H](O)CC3)nc2c1 [Example 81, N-benzyl-2-[(trans-4-hydroxycyclohexyl)amino]quinazoline-7-carboxamide] | 63
O=C(NCCc1ccccc1)c1ccc2cnc(N[C@H]3CC[C@H](O)CC3)nc2c1 [Example 82, 2-[(trans-4-hydroxycyclohexyl)amino]-N-(2-phenylethyl)quinazoline-7-carboxamide] | 235
CC(C)NC(=O)c1ccc2cnc(N[C@H]3CC[C@H](O)CC3)nc2c1 [Example 83, 2-[(trans-4-hydroxycyclohexyl)amino]-N-isopropylquinazoline-7-carboxamide] | 247
O=C(c1ccc2cnc(N[C@H]3CC[C@H](O)CC3)nc2c1)N1CCC[C@H]1CO [Example 85, trans-4-[(7-{[(2S)-2-(hydroxymethyl)pyrrolidin-1-yl]carbonyl}quinazolin-2-yl)amino]cyclohexanol] | 3010
O=C(NCc1ccccn1)c1ccc2cnc(N[C@H]3CC[C@H](O)CC3)nc2c1 [Example 86, 2-[(trans-4-hydroxycyclohexyl)amino]-N-(pyridin-2-ylmethyl)quinazoline-7-carboxamide] | 220
C[C@@H](NC(=O)c1ccc2cnc(N[C@H]3CC[C@H](O)CC3)nc2c1)c1ccccc1 [Example 87, 2-[(trans-4-hydroxycyclohexyl)amino]-N-[(1R)-1-phenylethyl]quinazoline-7-carboxamide] | 60
O=C(NCc1ccc(F)cc1)c1ccc2cnc(N[C@H]3CC[C@H](O)CC3)nc2c1 [Example 88, N-(4-fluorobenzyl)-2-[(trans-4-hydroxycyclohexyl)amino]quinazoline-7-carboxamide] | 114
CC(C)(CN1CCOCC1)NC(=O)c1ccc2cnc(N[C@H]3CC[C@H](O)CC3)nc2c1 [Example 89, N-(1,1-dimethyl-2-morpholin-4-ylethyl)-2-[(trans-4-hydroxycyclohexyl)amino]quinazoline-7-carboxamide] | 269
CC(=O)N1CCC(CNC(=O)c2ccc3cnc(N[C@H]4CC[C@H](O)CC4)nc3c2)CC1 [Example 91, N-[(1-acetylpiperidin-4-yl)methyl]-2-[(trans-4-hydroxycyclohexyl)amino]quinazoline-7-carboxamide] | 643
O=C(NCC1CCCOC1)c1ccc2cnc(N[C@H]3CC[C@H](O)CC3)nc2c1 (stereo partly drawn) [Example 92, 2-[(trans-4-hydroxycyclohexyl)amino]-N-(tetrahydro-2H-pyran-3-ylmethyl)quinazoline-7-carboxamide] | 379
CC[C@@H](NC(=O)c1ccc2cnc(N[C@H]3CC[C@H](O)CC3)nc2c1)c1ccccc1 [Example 93, 2-[(trans-4-hydroxycyclohexyl)amino]-N-[(1R)-1-phenylpropyl]quinazoline-7-carboxamide] | 31
O=C(NC1CCc2ccccc21)c1ccc2cnc(N[C@H]3CC[C@H](O)CC3)nc2c1 (stereo partly drawn) [Example 94, N-(2,3-dihydro-1H-inden-1-yl)-2-[(trans-4-hydroxycyclohexyl)amino]quinazoline-7-carboxamide] | 148
O=C(N[C@H](CO)c1ccccc1)c1ccc2cnc(N[C@H]3CC[C@H](O)CC3)nc2c1 [Example 95, 2-[(trans-4-hydroxycyclohexyl)amino]-N-[(1S)-2-hydroxy-1-phenylethyl]quinazoline-7-carboxamide] | 74
